Laboratory results reported in PubChem BioAssay AID330 (DTP/NCI, 2004).
Values joined by “and” are separate entries in the source; they are usually repeats but may differ in a detail not shown here. Identical values can stand only once. Toxic doses and inconclusive results are not listed.

Test system: P388 leukemia ip, CD2F1 mice, survival T/C
Experiment: NCI In Vivo Anticancer Drug Screen. Data for tumor model P388 Leukemia (intraperitoneal) in CD2F1 (CDF1) mice
Conditions: endpoint: median survival time, higher = longer survival
In short: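 Mice carrying the transplanted tumor received test compound or vehicle. Survival was recorded in each group, and the value is the treated-group measurement divided by that of the vehicle-treated control group.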

[1] = dose: 50.0 mg/kg/injection, schedule: Q01DX005 (ip), vehicle: Klucel (hydroxypropylcellulose) (HPC)
[2] = dose: 100.0 mg/kg/injection, schedule: Q01DX005 (ip), vehicle: Klucel (hydroxypropylcellulose) (HPC)
[3] = dose: 200.0 mg/kg/injection, schedule: Q01DX005 (ip), vehicle: Klucel (hydroxypropylcellulose) (HPC)
[4] = dose: 100.0 mg/kg/injection, schedule: Q04DX003 (ip), vehicle: saline with Tween-80
[5] = dose: 200.0 mg/kg/injection, schedule: Q04DX003 (ip), vehicle: saline with Tween-80

Question: What does the source list for O=C1c2ccccc2C(=O)N1OCc1ccccc1[N+](=O)[O-]?
Answer: T/C [1]: 102 % of control; T/C [2]: 101 % of control; T/C [3]: 90 % of control

Question: How did the T/C [1] turn out when CC1(C)S[C@@H]2[C@H](NC(=O)C3(N)CCCCC3)C(=O)N2[C@H]1C(=O)O was run?
Answer: Its T/C is 103 % of control.

Question: And the T/C [2]?
Answer: The T/C was 103 % of control.

Question: What about the T/C [3] of the same compound?
Answer: The T/C was 102 % of control.

Question: For O=C(CCCc1ccc(N(CCCl)CCCl)cc1)NCC(O)C(O)C(O)C(O)CO (stereo unspecified), which T/C (dose: 15.0 mg/kg/injection, schedule: Q01DX005 (ip), vehicle: saline with Tween-80) is on record?
Answer: The T/C was 187 % of control.

Question: What about the T/C (dose: 30.0 mg/kg/injection, schedule: Q01DX005 (ip), vehicle: saline with Tween-80) of the same compound?
Answer: The T/C was 201 % of control and 206 % of control.

Question: What about the T/C (dose: 60.0 mg/kg/injection, schedule: Q01DX005 (ip), vehicle: saline with Tween-80) of the same compound?
Answer: The T/C was 235 % of control and 250 % of control.

Question: Which results are given for COC(=O)Cc1cc(=O)[nH][nH]1?
Answer: T/C (dose: 50.0 mg/kg/injection, schedule: Q01DX001 (ip), vehicle: suspension in saline): 93 % of control; T/C (dose: 100.0 mg/kg/injection, schedule: Q01DX001 (ip), vehicle: suspension in saline): 95 % of control; T/C (dose: 200.0 mg/kg/injection, schedule: Q01DX001 (ip), vehicle: suspension in saline): 86 % of control

Question: Which results are given for CC1(C)CC(=O)c2c(ncc3cc4c(cc23)OCO4)C1?
Answer: T/C (dose: 100.0 mg/kg/injection, schedule: Q04DX002 (ip), vehicle: saline with Tween-80): 110 % of control; T/C (dose: 200.0 mg/kg/injection, schedule: Q04DX002 (ip), vehicle: saline with Tween-80): 118 % of control

Question: Which results are given for CSc1nc(Cl)c2ncn(C3C=CC(OC(C)=O)CO3)c2n1 (stereo unspecified)?
Answer: T/C [1]: 103 % of control; T/C [2]: 99 % of control; T/C [3]: 109 % of control

Question: With COC(=O)c1[nH]c(=O)[nH]c(=O)c1N as the compound, how does the T/C (dose: 25.0 mg/kg/injection, schedule: Q04DX003 (ip), vehicle: saline with Tween-80) read?
Answer: The T/C was 100 % of control.

Question: What about the T/C (dose: 50.0 mg/kg/injection, schedule: Q04DX003 (ip), vehicle: saline with Tween-80) of the same compound?
Answer: The T/C was 101 % of control.

Question: And the T/C [4]?
Answer: Its T/C is 100 % of control.

Question: And the T/C [5]?
Answer: Its T/C is 102 % of control.

Question: With CCC(=O)NC1=C(Cl)C(=O)C(Cl)=C(Cl)C1=O as the compound, how does the T/C (dose: 3.13 mg/kg/injection, schedule: Q01DX009 (ip), vehicle: saline with Tween-80) read?
Answer: The T/C was 111 % of control.

Question: And the T/C (dose: 6.25 mg/kg/injection, schedule: Q01DX009 (ip), vehicle: saline with Tween-80)?
Answer: The T/C was 103 % of control.

Question: Which T/C (dose: 25.0 mg/kg/injection, schedule: Q01DX009 (ip), vehicle: saline with Tween-80) does the source give for CCOC(=O)CC(=O)OC(C)(C)C here?
Answer: The T/C was 97 % of control.

Question: And the T/C (dose: 50.0 mg/kg/injection, schedule: Q01DX009 (ip), vehicle: saline with Tween-80)?
Answer: Its T/C is 106 % of control.

Question: What about the T/C (dose: 100.0 mg/kg/injection, schedule: Q01DX009 (ip), vehicle: saline with Tween-80) of the same compound?
Answer: Its T/C is 104 % of control.

Question: And the T/C (dose: 200.0 mg/kg/injection, schedule: Q01DX009 (ip), vehicle: saline with Tween-80)?
Answer: Its T/C is 100 % of control.

Question: How did the T/C (dose: 10.0 mg/kg/injection, schedule: Q04DX003 (ip), vehicle: Klucel (hydroxypropylcellulose) (HPC)) turn out when Cc1c(Cl)c(O)cc2oc3cc(O)cc(O)c3c(=O)c12 was run?
Answer: Its T/C is 105 % of control.

Question: What about the T/C (dose: 20.0 mg/kg/injection, schedule: Q04DX003 (ip), vehicle: Klucel (hydroxypropylcellulose) (HPC)) of the same compound?
Answer: The T/C was 102 % of control.

Question: What about the T/C (dose: 40.0 mg/kg/injection, schedule: Q04DX003 (ip), vehicle: Klucel (hydroxypropylcellulose) (HPC)) of the same compound?
Answer: Its T/C is 105 % of control.

Question: Which results are given for COC(=O)/C=C\C=[N+](/[O-])C(C)(C)C?
Answer: T/C (dose: 12.5 mg/kg/injection, schedule: Q01DX001 (ip), vehicle: Klucel (hydroxypropylcellulose) (HPC)): 114 % of control; T/C (dose: 25.0 mg/kg/injection, schedule: Q01DX001 (ip), vehicle: Klucel (hydroxypropylcellulose) (HPC)): 113 % of control; T/C (dose: 50.0 mg/kg/injection, schedule: Q01DX001 (ip), vehicle: Klucel (hydroxypropylcellulose) (HPC)): 113 % of control

Question: Which T/C [4] does the source give for C=C1C(=O)OC2/C=C(/C)CC/C=C(\C(=O)O)CC/C=C(\C)CCC12 (stereo unspecified) here?
Answer: Its T/C is 113 % of control.

Question: What about the T/C [5] of the same compound?
Answer: The T/C was 110 % of control.

Question: What does the source list for CCOC(=O)c1cnc(Sc2c([N+](=O)[O-])ncn2C)nc1N?
Answer: T/C (dose: 12.5 mg/kg/injection, schedule: Q01DX009 (ip), vehicle: Klucel (hydroxypropylcellulose) (HPC)): 89 % of control; T/C (dose: 25.0 mg/kg/injection, schedule: Q01DX009 (ip), vehicle: Klucel (hydroxypropylcellulose) (HPC)): 92 % of control; T/C (dose: 50.0 mg/kg/injection, schedule: Q01DX009 (ip), vehicle: Klucel (hydroxypropylcellulose) (HPC)): 86 % of control and 91 % of control

Question: COc1cccc2sc(-c3ccccc3)cc(=O)c12 was tested. Which T/C [1] did it give?
Answer: Its T/C is 93 % of control.

Question: What about the T/C [2] of the same compound?
Answer: Its T/C is 93 % of control.

Question: And the T/C [3]?
Answer: The T/C was 96 % of control.
